Results published in patent US12569507B2, “CAR T-cells for the treatment of bone metastatic cancer” (H. Lee Moffitt Cancer Center and Research Institute, Inc., priority 2018, dated 2026).

Columns and labels:
[1] = test system: Panc02.03 pancreatic cancer cells; assay: IPP production in response to zoledronate, LC-MS/MS of cell extracts; assay type: cell-based; conditions: Panc02.03 cells, even after prolonged treatment with high doses
Description: (§1) Following treatment of tumor cells with ZOL, IPP was measured in cell extracts by tandem LC-MS/MS, using AppCp as an internal standard. […] ZOL treatment was administered for 1 h or 18 h, at 2 different doses: 10 μM or 25 μM.
(§2) In order to verify that zoledronate effectively induces IPP accumulation in a model system, C4-2B-PSCA-Luc human CRPC prostate cancer cells were treated with 10 μM or 25 μM of zoledronate, for 1 h or 18 h. Intracellular IPP levels were measured using a semi-quantitative mass spectrometry assay. T47D breast cancer cells were used as positive control, and Panc02.03 pancreatic cancer cells were used as negative controls.

T47D breast cancer cells = assay: as above; assay type: cell-based; conditions: 1 h, high-dose zoledronate
Description: as §1, §2

C4-2B-PSCA cells [2] = assay: RTCA cytotoxicity with or without zoledronate; assay type: cell-based, human; conditions: γδ T-cells in combination with zoledronate
Description: (§3) Summary of RTCA analysis of C4-2B-PSCA, or control PSCA null C4-2B, cells co-cultured with γδ CAR-T cells, or untransduced controls (UT). FIGS. […] show tumor cells without ZOL pretreatment. FIGS. 6C and 6D show tumor cells with 2 h ZOL pretreatment. FIGS. 6A and 6C show tumor cell viability 2 h post co-culture. FIGS. 6B and 6D show 30 h post co-culture.
(§4) The CAR- and TCR-mediated mechanism of tumor cell recognition were tested using the CRPC C4-2B cell line.

[3] = test system: Parental C4-2B cells (PSCA null); assay: RTCA cytotoxicity with or without zoledronate; assay type: cell-based, human; conditions: γδ T-cells in combination with zoledronate
Description: as §3, §4

[4] = test system: C4-2B luciferase expressing cells; assay: Intratibial C4-2B bone metastatic CRPC model, γδ T-cells with zoledronate or vehicle; assay type: in vivo, NSG mice
From the text: FIGS. 7A to 7D show C4-2B cells inoculated into NSG mice and treated with either zoledronate (ZOL) or vehicle control. After establishment and randomization mice (n=15/group) were inoculated with 3.5×10^6 […]. Subsets of mice were removed from the study at 1, 3 and 5 days late. […] Number illustrate the percentage of γδ T-cells in the total marrow analysis over time. […] FIG. 7C is a graph showing RLUs quantitated over time and the growth rates calculated for each group. Asterisk indicates statistical significance. Mice at the final time point were assessed for γδ T-cell localization (CD3), apoptosis (cleaved caspase-3; CC3) and proliferation (phospho histone H3; pHH3). […] Arrows indicate positivity. DAPI was used as a nuclear counterstain.
Next, the anti-tumor activity of γδ T-cells on established bone metastatic CRPC lesions in vivo was assessed. NSG (NOD.Cg-Prkdcscid112rgtm1Wjl/SzJ) immunocompromised mice were intratibially inoculated with C4-2B luciferase expressing cells (1×10^5) and once established were randomized in zoledronate (0.1 mg/Kg) or vehicle (saline) groups (n=25 per group) based on relative luminescence unit (RLU) measurement. One week later, mice received tail vein injections of human γδ T-cells (3.5×10^6/mouse).
Groups of mice (n=5) were removed from the study 1, 3, 5 days subsequent to injection with tibias being flushed and assessed for human CD3 Vd2 content by flow cytometry. […] Bioluminescence was used as a correlate of tumor growth.

[5] = test system: PSCA-expressing C42B prostate cancer cells; assay: Interferon-γ ELISA of γδ CAR-T coculture supernatants; assay type: cell-based
From the text: Four variants of the anti-PSCA CAR were generated containing either CD27 (CD27z), CD28 (CD28z), or 4-1BB (BBz) costimulation. The fourth variant contains a CD27 costimulatory domain where the TRAF-binding site has been replaced with an inert flexible linker (G4S). γδ CAR-T cells expressing either CAR variant (or GFP as controls) were generated, and cocultured with PSCA-expressing C42B prostate cancer cells, in presence or absence of zoledronate, at the indicated doses. The presence of interferon-γ in the supernatants (measured by ELISA) was used as a marker of T cell activation. CAR-expressing T cells (but not untransduced or GFP-transduced cells) reacted to target cells by producing interferon-γ (solid bars).

CRPC C4-2BPSCA cell line = assay: Cytotoxicity of γδ (CAR)-T cells with or without ZOL; assay type: cell-based; conditions: ZOL 0.4 μM added to γδ CAR-T
Description: FIGS. 11A and 11B show zoledronate enhances γδ (CAR)-T cells cytotoxic effect.
(§5) γδ CAR-T cells recognize tumor cells via CAR and via TCR. The CAR- and TCR-mediated mechanisms of tumor cell recognition were tested using the CRPC C4-2BPSCA cell line. Cancer cells were treated with either untransduced (UT) control or CAR-expressing γδ T-cells, in the presence or absence of ZOL (0.4 μM). In presence of ZOL, control γδ T cells induced a cytotoxic effect at approx. 18 h, reflecting recognition of C4-2B-PSCA cells via TCR. […] The ability to induce a potent cytolytic effect with lesser cytokine production that can be modulated by ZOL is important since it may allow γδ (CAR-)T-cells to mediate more precise tumor killing, reducing the risk for complications related to massive cytokine release.

C4-2B-PSCA cells [6] = assay: IFNγ ELISA of co-culture supernatants with increasing Zol; assay type: cell-based
Description: IFNγ ELISA of co-culture supernatants of C4-2B-PSCA cells exposed to media (negative control) or the indicated T cells, in presence of increasing concentrations of Zol (0, 0.4 and 0.8 μM).
as §5

γδ (CAR)-T cells = assay: IL-2 secretion by γδ (CAR)-T cells; assay type: cell-based
[7] = tibias at study endpoint, vs control

O=P(O)(O)C(O)(Cn1ccnc1)P(=O)(O)O [zoledronate]
Intracellular IPP levels [1]: did not produce IPP | Intracellular IPP levels (T47D breast cancer cells): detectable over background | viability of tumor cells, early time point (C4-2B-PSCA cells [2]): less evident | viability of tumor cells, early time point [3]: notable reduction in the viability | apoptotic (cleaved caspase-3) cancer cells [4, 7]: increased | proliferative (phospho-Histone H3) cancer cells [4, 7]: decreased | C4-2B growth rate (bioluminescence) ([4]; zoledronate group vs controls, with γδ T-cells): significantly slower | effect of zoledronate on target recognition by control γδ T cells ([5]; GFP-transduced and untransduced γδ T cells): induced target recognition by GFP-transduced and untransduced γδ T cells | effect of zoledronate on interferon production by CAR-T cells ([5]; γδ CAR-T cells, coculture): enhanced interferon production by CAR-T cells | effect of ZOL on cytolytic activity of γδ CAR-T (CRPC C4-2BPSCA cell line): greatly enhanced | time to complete elimination of tumor cells (CRPC C4-2BPSCA cell line): ≤ 45 h | effect of ZOL on IFNγ secretion (C4-2B-PSCA cells [6]; coculture of γδ (CAR-)T-cells with C4-2BPSCA cells): enhanced IFNγ secretion | effect of ZOL on IFNγ secretion (C4-2B-PSCA cells [6]; αβ T cells used): not observed | IL-2 secretion by γδ (CAR)-T cells (γδ (CAR)-T cells): increases IL-2 secretion
